Data reported in ChEMBL document CHEMBL3745610, “A dimeric urea of the bisabolene sesquiterpene from the Okinawan marine sponge Axinyssa sp. inhibits protein tyrosine phosphatase 1B activity in Huh-7 human hepatoma cells” (Bioorg Med Chem Lett, 2016).
Active and inactive are the calls of the source. The rule behind the calls is not given here.

Columns and labels:
[1] = Cytotoxicity against human EJ1 cells assessed as cell viability after 72 hrs by WST-1 assay; type: cell-based; conditions: EJ1, 72 h
[2] = molecular target: T1, Tyrosine-protein phosphatase non-receptor type 1 (Homo sapiens) (UniProt P18031); experiment: Inhibition of recombinant human PTP1B using pNPP as substrate at 24 uM incubated for 10 mins prior to substrate addition measured after 30 mins by microplate reader analysis
T1 sequence (whole entry): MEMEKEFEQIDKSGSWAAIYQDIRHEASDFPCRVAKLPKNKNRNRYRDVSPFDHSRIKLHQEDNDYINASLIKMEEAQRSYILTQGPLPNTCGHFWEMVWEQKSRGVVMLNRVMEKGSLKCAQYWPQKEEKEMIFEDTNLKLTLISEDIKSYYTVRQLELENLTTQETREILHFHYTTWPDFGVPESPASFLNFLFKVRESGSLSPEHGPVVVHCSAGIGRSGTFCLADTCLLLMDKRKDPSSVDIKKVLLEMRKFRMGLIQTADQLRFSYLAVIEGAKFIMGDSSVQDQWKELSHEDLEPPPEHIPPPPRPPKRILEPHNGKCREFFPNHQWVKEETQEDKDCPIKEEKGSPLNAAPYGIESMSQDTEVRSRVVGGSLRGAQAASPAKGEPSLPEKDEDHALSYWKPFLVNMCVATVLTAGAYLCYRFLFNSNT

[3] = Cytotoxicity against human HuH7 cells assessed as cell viability after 72 hrs by WST-1 assay; type: cell-based; conditions: Huh-7, 72 h
[4] = molecular target: T1, Tyrosine-protein phosphatase non-receptor type 1 (Homo sapiens); experiment: Inhibition of recombinant human PTP1B using pNPP as substrate at 36 uM incubated for 10 mins prior to substrate addition measured after 30 mins by microplate reader analysis
[5] = molecular target: T2, Tyrosine-protein phosphatase non-receptor type 1 (Homo sapiens, UniProt P18031); experiment: Inhibition of recombinant human PTP1B using pNPP as substrate incubated for 10 mins prior to substrate addition measured after 30 mins by microplate reader analysis
T2 sequence (P18031 whole entry): T1 sequence (whole entry)

[6] = molecular target: T1, Tyrosine-protein phosphatase non-receptor type 1 (Homo sapiens); experiment: Inhibition of PTP1B in human Huh7 cells assessed as increase in insulin-stimulated phosphorylated Akt level at 20 uM preincubated for 2 hrs followed by insulin stimulation for 5 mins by Western blot analysis; type: cell-based; conditions: Huh-7
[7] = molecular target: T1, Tyrosine-protein phosphatase non-receptor type 1 (Homo sapiens); experiment: Inhibition of PTP1B in human Huh7 cells assessed as increase in phosphorylated Akt level at 20 uM after 2 hrs by Western blot analysis; type: cell-based; conditions: Huh-7
[8] = molecular target: T1, Tyrosine-protein phosphatase non-receptor type 1 (Homo sapiens); experiment: Inhibition of PTP1B in human Huh7 cells assessed as increase in phosphorylated Akt level at 50 uM after 2 hrs by Western blot analysis; type: cell-based; conditions: Huh-7
[9] = molecular target: T1, Tyrosine-protein phosphatase non-receptor type 1 (Homo sapiens); experiment: Inhibition of PTP1B in human Huh7 cells assessed as increase in insulin-stimulated phosphorylated Akt level at 50 uM preincubated for 2 hrs followed by insulin stimulation for 5 mins by Western blot analysis; type: cell-based; conditions: Huh-7
[10] = molecular target: T1, Tyrosine-protein phosphatase non-receptor type 1 (Homo sapiens); experiment: Inhibition of PTP1B in human Huh7 cells assessed as increase in insulin-stimulated phosphorylated Akt level preincubated for 2 hrs followed by insulin stimulation for 5 mins by Western blot analysis; type: cell-based; conditions: Huh-7

Row | SMILES | IC50 [1] | inhibition [2] | IC50 [3] | inhibition [4] | IC50 [5] | inhibition [6] | inhibition [7] | inhibition [8] | inhibition [9] | inhibition [10]
1 | COc1cccc2c1C(=O)c1c(O)c3c(c(O)c1C2=O)C[C@@](O)(C(=O)CO)C[C@@H]3O[C@H]1C[C@H](N)[C@H](O)[C@H](C)O1 [DOXORUBICIN] | 0.023 µM |  |  |  |  |  |  |  |  | 
2 | C=C(C)[C@@H](C)/C=C/[C@@H](C)[C@H]1CC[C@@H]2[C@]1(C)CC[C@H]1[C@]23C=C[C@]2(C[C@@H](O)CC[C@]12C)OO3 | 21 µM | 50% | 26 µM |  |  |  |  |  |  | 
3 | CC(C)[C@@H]1CC[C@](C)(N=C=S)[C@@H]2CC[C@@](C)(O)C=C12 [AXINISOTHIOCYANATE J] | > 50 µM |  | > 50 µM | 50% |  |  |  |  |  | 
4 | CC1=C[C@H]2[C@@H](CC1)[C@@](C)(N=C=S)CC[C@H]2C(C)C | > 50 µM |  | > 50 µM |  | 17 µM |  |  |  |  | 
5 | CC(C)=CCC[C@](C)(N)[C@H]1CC=C(C)CC1 | > 50 µM |  | > 50 µM |  | > 45 µM | inactive | inactive | inactive | inactive | 
6 | CC(C)=CCC[C@](C)(NC(=O)N[C@@](C)(CCC=C(C)C)[C@H]1CC=C(C)CC1)[C@H]1CC=C(C)CC1 | > 50 µM |  | > 50 µM |  | 1.9 µM |  | inactive | inactive |  | Dose-dependent effect
